In publication PMC5602572, “New carboxamide derivatives bearing benzenesulphonamide as a selective COX-II inhibitor: Design, synthesis and structure-activity relationship” (PLoS ONE, 2017):
Read-outs that look alike come from different tables or passages of the source.

Legend:
[1] = biological target: T1, COX-2 (Ovis aries, UniProt P79208); experiment: In vitro cyclooxygenase inhibitory assay (Cayman colorimetric COX (ovine) inhibitor screening kit), COX-2; type: biochemical; settings: for inhibition at 2 µM: read-out: COX-2 (%) inhibition; for selectivity for COX-2 (in words): from COX-2/COX-1 % inhibition at 2.0 μM; for S I (selectivity COX-2/COX-1): ratio of % inhibition COX-2/COX-1 at 2.0 μM
T1 construct: purchased Cayman chemicals, USA
T1 sequence (P79208 17-603): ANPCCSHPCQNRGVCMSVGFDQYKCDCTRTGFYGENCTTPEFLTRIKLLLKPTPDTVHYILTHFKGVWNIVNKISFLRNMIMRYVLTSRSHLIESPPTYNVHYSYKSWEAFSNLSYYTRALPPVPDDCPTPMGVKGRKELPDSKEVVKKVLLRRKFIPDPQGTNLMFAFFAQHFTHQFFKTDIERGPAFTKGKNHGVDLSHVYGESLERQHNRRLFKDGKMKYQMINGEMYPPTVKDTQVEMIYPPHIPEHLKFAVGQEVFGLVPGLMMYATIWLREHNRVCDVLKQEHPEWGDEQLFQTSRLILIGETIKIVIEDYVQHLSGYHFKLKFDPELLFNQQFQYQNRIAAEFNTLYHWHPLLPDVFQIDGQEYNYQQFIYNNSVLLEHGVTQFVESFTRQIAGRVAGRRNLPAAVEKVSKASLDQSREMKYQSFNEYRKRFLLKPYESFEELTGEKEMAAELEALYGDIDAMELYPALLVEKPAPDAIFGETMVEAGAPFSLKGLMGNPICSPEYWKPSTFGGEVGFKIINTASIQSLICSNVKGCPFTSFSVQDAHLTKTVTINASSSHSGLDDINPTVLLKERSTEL
Method: (§1) The calculations were performed as per the kit guidelines.

[2] = Determination of LD50 in mice; settings: mouse, in vivo, ip; male mice, intraperitoneal, observation 72 h
Method: Male mice were divided into various groups and test compounds were administered in various doses intraperitoneally. […] All behavioral changes and deaths during the observation periods were recorded. The percentage of death at each dose level was then calculated, converted to probits and the LD50 (μM/kg) values were calculated. To observe the health status of the mice, they were monitored 4 times a day. […] For the purpose of ameliorating the suffering of the dying mice, CO2 euthanasia was applied. All the dead mice were disposed in bio-safety containers in accordance with local standard protocols. The mortality rate in each group was calculated according to the formula: Mortality rate(%)=(the number of dead mice/the number of mice in the group)×100.

[3] = test system: carrageenan induced rat paw edema; experiment: carrageenan-induced rat paw edema bioassay; type: in vivo; settings: % inhibition of carrageenan induced rat paw edema, intraperitoneal; for Anti-inflammatory activity, 0.5 h (%): 0.5 h after treatment; for Anti-inflammatory activity, 1 h (%): 1 h after treatment; for Anti-inflammatory activity, 2 h (%): 2 h after treatment; for Anti-inflammatory activity, 3 h (%): 3 h after treatment
Method: Male albino rats weighing 300 g where purchased from the Department of Zoology and Environmental Biology, University of Nigeria, Nsukka and kept at room temperature in a light controlled animal house. They were fasted with free access to water at least 12 h prior to the experiments. […] The positive control received celecoxib while the negative control received only the vehicle. Edema was produced by injecting 0.2 mL of a solution of 1% carrageenan in the hind paw. The rats were injected intraperitoneally with 1 mL suspension in 0.5% methylcellulose of the tested compounds and reference drug. Paw volume was measured by water displacement with a plethysmometer (UGO BASILE) before, 30 min, 1 h, 2 h and 3 h after treatment. The percentage was calculated by the following equation [25].
Anti-inflammatory activity (%) = (1-D/C)[…], where D represents the difference in paw volume before and after drug administration to the rats and C represents the difference of volume in the control groups. The approval for the use of animal was obtained from the University of Nigeria committee on experimental animal use. No sign of death was observed during the experiment.

[4] = biological target: T2, COX-1 (Ovis aries, UniProt P05979); experiment: In vitro cyclooxygenase inhibitory assay (Cayman colorimetric COX (ovine) inhibitor screening kit), COX-1; type: biochemical; settings: read-out: COX-1 (%) inhibition
T2 construct: purchased Cayman chemicals, USA
T2 sequence (P05979 25-600): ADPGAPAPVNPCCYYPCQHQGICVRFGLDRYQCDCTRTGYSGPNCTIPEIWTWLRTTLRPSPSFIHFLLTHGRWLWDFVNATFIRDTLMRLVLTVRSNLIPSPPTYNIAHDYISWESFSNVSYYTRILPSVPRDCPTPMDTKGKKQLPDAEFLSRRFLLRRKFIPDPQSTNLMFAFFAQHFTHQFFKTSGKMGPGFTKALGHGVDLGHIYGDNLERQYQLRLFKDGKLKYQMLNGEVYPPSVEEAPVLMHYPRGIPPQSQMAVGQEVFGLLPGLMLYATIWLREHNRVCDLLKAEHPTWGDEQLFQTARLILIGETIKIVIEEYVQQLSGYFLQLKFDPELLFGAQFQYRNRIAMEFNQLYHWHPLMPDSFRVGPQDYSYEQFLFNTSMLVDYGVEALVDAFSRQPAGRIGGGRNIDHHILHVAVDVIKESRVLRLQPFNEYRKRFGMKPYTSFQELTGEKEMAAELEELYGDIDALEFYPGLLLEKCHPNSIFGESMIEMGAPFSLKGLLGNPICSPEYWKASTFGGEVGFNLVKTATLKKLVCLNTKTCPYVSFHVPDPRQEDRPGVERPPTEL
Method: as §1

Row | SMILES | inhibition at 2 µM ([1]; concentration of 2.0 μM) [%] | selectivity for COX-2 (in words) [1] | S I (selectivity COX-2/COX-1) [1] | LD50 at 72 h [2] [µmol/kg] | Anti-inflammatory activity, 0.5 h (%) [3] [%] | Anti-inflammatory activity, 1 h (%) [3] [%] | Anti-inflammatory activity, 2 h (%) [3] [%] | Anti-inflammatory activity, 3 h (%) [3] [%] | inhibition at 2 µM ([4]; concentration of 2.0 μM) [%] | inhibition at 2 µM [1] [%] | inhibition at 2 µM [4] [%]
1 | Cc1ccc(S(=O)(=O)N(C(=O)c2ccccc2)[C@@H](CC(C)C)C(=O)Nc2cc(C)ccn2)cc1 [Compound 7l, (2S)-4-Methyl-2-[N-(4-methylbenzenesulfonyl)-1-phenylformamido]-N-(4-methylpyridin-2-yl) pentanamide] | 19 | non-selective | 0.95 | 12.5 | 26.15 | 19.88 | 18.28 | 16.67 | 20 | – | –
2 | CCC(C)[C@@H](C(=O)Nc1cc(C)ccn1)N(C(=O)c1ccccc1)S(=O)(=O)c1ccc(C)cc1 (stereo partly drawn) [Compound 7m, (2S)-3-Methyl-2-[N-(4-methylbenzenesulfonyl)-1-phenylformamido]-N-(4-methylpyridin-2-yl) pentanamide] | 25 | non-selective | 1.47 | 11.9 | 13.85 | 12.35 | 8.59 | 8.58 | 17 | – | –
3 | Cc1ccc(S(=O)(=O)N(C(=O)c2ccccc2)[C@H](C(=O)Nc2cc(C)ccn2)C(C)C)cc1 [Compound 7n, (2S)-3-Methyl-2-[N-(4-methylbenzenesulfonyl)-1-phenylformamido]-N-(4-methylpyridin-2-yl) butanamide] | 48 | non-selective | 1.50 | 20.1 | 21.54 | 16.47 | 10.56 | 3.09 | 32 | – | –
4 | Cc1ccc(S(=O)(=O)N2CC(O)C[C@H]2C(=O)Nc2cc(C)ccn2)cc1 (stereo partly drawn) [Compound 7o, (2S)-4-Hydroxy-1-(4-methylbenzenesulfonyl)-N-(4-methylpyridin-2-yl)pyrrolidine-2-carboxamide] | – | – | – | 10.1 | 21.54 | 11.23 | 8.78 | 5.56 | – | 18 | 6
5 | Cc1ccc(S(=O)(=O)N2CCC[C@H]2C(=O)Nc2cc(C)ccn2)cc1 [Compound 7p, (2S)-1-(4-Methylbenzenesulfonyl)-N-(4-methylpyridin-2-yl)pyrrolidine-2-carboxamide] | – | – | – | 9.9 | 29.15 | 28.24 | 30.34 | 33.26 | – | 20 | 8
